We go through 26 molecules from US8895547B2, “Substituted phenyl-oxathiazine derivatives, method for producing them, drugs containing said compounds and the use thereof” (Sanofi, priority 2011, dated 2014).

The assay concerns the target T1, human 11β-HSD1 (Homo sapiens, UniProt P28845).
T1 construct: host or cells: microsome fraction
The assay can be described thus: Enzymatic 11beta-HSD1 test (SPA-based detection). In kind it is biochemical. The following applies: human 11β-HSD1 microsome fraction, [1,2-3H]-cortisone, NADPH, 37° C. 1 hour. Put shortly:
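Scintillation proximity detection: anti-cortisol antibody on SPA-PVT beads captured tritiated cortisol. The stop mix also contained 0.01 mM SSR110887 and was equilibrated 1 h at room temperature before counting. Cortisol came from [1,2-3H]-cortisone ([…]), turned over by human 11β-HSD1 microsomal protein (0.2 µg) with 0.25 mM NADPH in HEPES buffer, 37 °C, 1 h.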

As a reminder, the IC50 is the point on the concentration scale where inhibition reaches its midpoint.

T1 sequence (P28845 whole entry): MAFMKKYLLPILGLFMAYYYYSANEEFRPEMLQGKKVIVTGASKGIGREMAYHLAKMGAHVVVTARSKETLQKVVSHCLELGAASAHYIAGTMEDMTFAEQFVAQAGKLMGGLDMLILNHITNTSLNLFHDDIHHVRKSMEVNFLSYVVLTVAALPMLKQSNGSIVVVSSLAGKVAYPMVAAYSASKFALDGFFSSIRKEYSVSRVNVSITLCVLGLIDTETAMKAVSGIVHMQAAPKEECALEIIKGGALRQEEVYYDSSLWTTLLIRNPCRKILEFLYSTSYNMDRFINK

For `C[C@H](NC1=NS(=O)(=O)C(c2ccc(-c3ccc(C(N)=O)cc3)cc2)C(C)(C)O1)c1ccccc1F` (stereo partly drawn) [Example 157, 4′-{2-[(S)-1-(2-fluorophenyl)-ethylamino]-6,6-dimethyl-4,4-dioxo-5,6-dihydro-4H-4lambda6-[1,4,3]oxathiazin-5-yl}-biphenyl-4-carboxamide], the half-maximal inhibitory concentration (IC50) worked out at 20 nM.

Turning to `C[C@H](NC1=NS(=O)(=O)C(c2ccc(C3CCNCC3)cc2)C(C)(C)O1)c1ccccc1F` (stereo partly drawn) [Example 158, [6,6-Dimethyl-4,4-dioxo-5-(4-piperidin-4-yl-phenyl)-5,6-dihydro-4H-4lambda6-[1,4,3]oxathiazin-2-yl]-[(S)-1-(2-fluorophenyl)-ethyl]-amin], 38 nM corresponded to half-maximal inhibition (IC50). Against the preceding molecule, the IC50 is about 1.9-fold higher.

Take `C[C@H](NC1=NS(=O)(=O)C(c2ccc(C3CCN(C)CC3)cc2)C(C)(C)O1)c1ccccc1F` (stereo partly drawn) [Example 159, {6,6-Dimethyl-5-[4-(1-methyl-piperidin-4-yl)-phenyl]-4,4-dioxo-5,6-dihydro-4H-4lambda6-[1,4,3]oxathiazin-2-yl}-[(S)-1-(2-fluorophenyl)-ethyl]-amine]: the IC50 turned out to be 108 nM.

The molecule `C[C@H](NC1=NS(=O)(=O)C(c2ccc(C3CCN(CCO)CC3)cc2)C(C)(C)O1)c1ccccc1F` (stereo partly drawn) [Example 160, 2-[4-(4-{2-[(S)-1-(2-fluorophenyl)-ethylamino]-6,6-dimethyl-4,4-dioxo-5,6-dihydro-4H-4lambda6-[1,4,3]oxathiazin-5-yl}-phenyl)-piperidin-1-yl]-ethanol] yielded a half-maximal inhibitory concentration (IC50) of 64 nM.

`CC1(C)OC(N[C@@H](CCO)c2ccccc2F)=NS(=O)(=O)C1c1cccnc1` (stereo partly drawn) [Example 161, (S)-3-(6,6-Dimethyl-4,4-dioxo-5-pyridin-3-yl-5,6-dihydro-4H-4lambda6-[1,4,3]oxathiazin-2-ylamino)-3-(2-fluorophenyl)-propan-1-ol]: the 50% inhibitory concentration (IC50) stood at 11 nM.

In turn, `C[C@H](NC1=NS(=O)(=O)C(c2ccc(C(C)(C)O)cc2)C(C)(C)O1)c1ccccc1F` (stereo partly drawn) [Example 162, 2-(4-{2-[(S)-1-(2-fluorophenyl)-ethylamino]-6,6-dimethyl-4,4-dioxo-5,6-dihydro-4H-4lambda6-[1,4,3]oxathiazin-5-yl}-phenyl)-propan-2-ol] registered an IC50 of 52 nM.

Regarding `CC(=O)c1ccc(C2C(C)(C)OC(N[C@@H](C)c3ccccc3F)=NS2(=O)=O)cc1` (stereo partly drawn) [Example 163, 1-(4-{2-[(S)-1-(2-fluorophenyl)-ethylamino]-6,6-dimethyl-4,4-dioxo-5,6-dihydro-4H-4lambda6-[1,4,3]oxathiazin-5-yl}-phenyl)-ethanone], the IC50 came out at 15 nM. This IC50 lies about 3.5-fold lower than the previous one.

`C[C@H](NC1=NS(=O)(=O)C(c2ccc(-c3ccccc3)nc2)C(C)(C)O1)c1ccccc1F` (stereo partly drawn) [Example 164, [6,6-Dimethyl-4,4-dioxo-5-(6-phenyl-pyridin-3-yl)-5,6-dihydro-4H-4lambda6-[1,4,3]oxathiazin-2-yl]-[(S)-1-(2-fluorophenyl)-ethyl]-amine] gave an IC50 of 27 nM.

In turn, `CC1(C)OC(N[C@@H](CCO)c2ccccc2F)=NS(=O)(=O)C1c1ccc(-c2ccccc2)nc1` (stereo partly drawn) [Example 165, (S)-3-[6,6-Dimethyl-4,4-dioxo-5-(6-phenyl-pyridin-3-yl)-5,6-dihydro-4H-4lambda6-[1,4,3]oxathiazin-2-ylamino]-3-(2-fluorophenyl)-propan-1-ol] displayed a concentration for half-maximal inhibition (IC50) of 7 nM.

`C[C@H](NC1=NS(=O)(=O)C(c2ccc(-c3cnc(N4CCNCC4)nc3)cc2)C(C)(C)O1)c1ccccc1F` (stereo partly drawn) [Example 166, {6,6-Dimethyl-4,4-dioxo-5-[4-(2-piperazin-1-yl-pyrimidin-5-yl)-phenyl]-5,6-dihydro-4H-4lambda6-[1,4,3]oxathiazin-2-yl}-[(S)-1-(2-fluorophenyl)-ethyl]-amine]: inhibition was half-maximal at 4 nM (IC50).

For the molecule `C[C@H](NC1=NS(=O)(=O)C(c2ccc(N3CCNCC3)cc2)C(C)(C)O1)c1ccccc1F` (stereo partly drawn) [Example 167, [6,6-Dimethyl-4,4-dioxo-5-(4-piperazin-1-yl-phenyl)-5,6-dihydro-4H-4lambda6-[1,4,3]oxathiazin-2-yl]-[(S)-1-(2-fluorophenyl)-ethyl]-amine], the half-inhibitory concentration (IC50) is 122 nM.

In turn, `C[C@H](NC1=NS(=O)(=O)C(c2cccnc2)C(C)(C)O1)c1ccccc1F` (stereo partly drawn) [Example 168, (6,6-Dimethyl-4,4-dioxo-5-pyridin-3-yl-5,6-dihydro-4H-4lambda6-[1,4,3]oxathiazin-2-yl)-[(S)-1-(2-fluorophenyl)-ethyl]-amine] displayed an IC50 of 21 nM.

With `CC1(C)OC(N[C@@H](CCO)c2ccccc2F)=NS(=O)(=O)C1c1ccc(-c2cnc(N3CCNCC3)nc2)cc1` (stereo partly drawn) [Example 169, (S)-3-{6,6-Dimethyl-4,4-dioxo-5-[4-(2-piperazin-1-yl-pyrimidin-5-yl)-phenyl]-5,6-dihydro-4H-4lambda6-[1,4,3]oxathiazin-2-ylamino}-3-(2-fluoro-phenyl)-propan-1-ol], the 50% inhibitory concentration (IC50) came out at 2 nM.

In the case of `C[C@H](NC1=NS(=O)(=O)C(c2ccc(N3CCN(C)CC3)cc2)C(C)(C)O1)c1ccccc1F` (stereo partly drawn) [Example 170, {6,6-Dimethyl-5-[4-(4-methyl-piperazin-1-yl)-phenyl]-4,4-dioxo-5,6-dihydro-4H-4lambda6-[1,4,3]oxathiazin-2-yl}-[(S)-1-(2-fluorophenyl)-ethyl]-amine], the midpoint of inhibition, the IC50, lay at 246 nM.

In turn, `C[C@H](NC1=NS(=O)(=O)C(c2ccc(C3CCN(C(C)(C)C)CC3)cc2)C(C)(C)O1)c1ccccc1F` (stereo partly drawn) [Example 171, {5-[4-(1-tert-Butyl-piperidin-4-yl)-phenyl]-6,6-dimethyl-4,4-dioxo-5,6-dihydro-4H-4lambda6-[1,4,3]oxathiazin-2-yl}-[(S)-1-(2-fluorophenyl)-ethyl]-amine] showed an IC50 of 108 nM.

With `C[C@H](NC1=NS(=O)(=O)C(c2ccc(C3CCN(C4CC4)CC3)cc2)C(C)(C)O1)c1ccccc1F` (stereo partly drawn) [Example 172, {5-[4-(1-Cyclopropyl-piperidin-4-yl)-phenyl]-6,6-dimethyl-4,4-dioxo-5,6-dihydro-4H-4lambda6-[1,4,3]oxathiazin-2-yl}-[(S)-1-(2-fluorophenyl)-ethyl]-amine], the concentration for half-maximal inhibition (IC50) was found to be 55 nM.

Turning to `C[C@H](NC1=NS(=O)(=O)C(c2ccc(-c3ccccc3CN(C)C)cc2)C(C)(C)O1)c1ccccc1F` (stereo partly drawn) [Example 173, [5-(2′-Dimethylaminomethyl-biphenyl-4-yl)-6,6-dimethyl-4,4-dioxo-5,6-dihydro-4H-4lambda6-[1,4,3]oxathiazin-2-yl]-[(S)-1-(2-fluorophenyl)-ethyl]-amin], it took 137 nM to reach half-maximal inhibition (IC50).

Turning to `C[C@H](NC1=NS(=O)(=O)[C@@H](c2ccc(-c3cccc(C(N)=O)c3)cc2)C(C)(C)O1)c1ccccc1F` [Example 174, 4′-{(S)-2-[(S)-1-(2-fluorophenyl)-ethylamino]-6,6-dimethyl-4,4-dioxo-5,6-dihydro-4H-4lambda6-[1,4,3]oxathiazin-5-yl}-biphenyl-3-carboxamide], the IC50 is 18 nM.

`C[C@H](NC1=NS(=O)(=O)[C@H](c2ccc(-c3cccc(C(N)=O)c3)cc2)C(C)(C)O1)c1ccccc1F` [Example 175, 4′-{(R)-2-[(S)-1-(2-fluorophenyl)-ethylamino]-6,6-dimethyl-4,4-dioxo-5,6-dihydro-4H-4lambda6-[1,4,3]oxathiazin-5-yl}-biphenyl-3-carboxamide]: the IC50 was found to be 20 nM.

The molecule `C[C@H](NC1=NS(=O)(=O)C(c2ccc(-c3cccc(C(N)=O)c3)nc2)C(C)(C)O1)c1ccccc1F` (stereo partly drawn) [Example 176, 3-(5-{2-[(S)-1-(2-fluor-phenyl)-ethylamino]-6,6-odimethyl-4,4-dioxo-5,6-dihydro-4H-4lambda6-[1,4,3]oxathiazin-5-yl}-pyridin-2-yl)-benzamide] came in with an IC50 of 6 nM. This IC50 lies about 3.3-fold lower than the previous one.

Regarding `C[C@H](NC1=NS(=O)(=O)[C@@H](c2ccc(-c3cncc(C(N)=O)c3)cc2)C(C)(C)O1)c1ccccc1F` [Example 177, 5-(4-{(S)-2-[(S)-1-(2-fluorophenyl)-ethylamino]-6,6-dimethyl-4,4-dioxo-5,6-dihydro-4H-4lambda6-[1,4,3]oxathiazin-5-yl}-phenyl)-nicotinamide], the IC50 was determined as 17 nM.

`C[C@H](NC1=NS(=O)(=O)[C@H](c2ccc(-c3cncc(C(N)=O)c3)cc2)C(C)(C)O1)c1ccccc1F` [Example 178, 5-(4-{(R)-2-[(S)-1-(2-fluorophenyl)-ethylamino]-6,6-dimethyl-4,4-dioxo-5,6-dihydro-4H-4lambda6-[1,4,3]oxathiazin-5-yl}-phenyl)-nicotinamide] gave a half-maximal inhibitory concentration (IC50) of 3 nM.

In turn, `C[C@H](NC1=NS(=O)(=O)C(c2cccc(C3CCN(C)CC3)c2)C(C)(C)O1)c1ccccc1F` (stereo partly drawn) [Example 179, {6,6-Dimethyl-5-[3-(1-methyl-piperidin-4-yl)-phenyl]-4,4-dioxo-5,6-dihydro-4H-4lambda6-[1,4,3]oxathiazin-2-yl}-[(S)-1-(2-fluorophenyl)-ethyl]-amine] displayed a 50% inhibitory concentration (IC50) of 34 nM.

Regarding `C[C@H](NC1=NS(=O)(=O)C(c2ccc(-c3cccc(C(N)=O)c3)nc2)C(C)(C)O1)c1ccccc1F` (stereo partly drawn) [Example 180, 3-(5-{2-[(S)-1-(2-fluorophenyl)-ethylamino]-6,6-dimethyl-4,4-dioxo-5,6-dihydro-4H-41ambda6-[1,4,3]oxathiazin-5-yl}-pyridin-2-yl)-benzamide], the IC50 worked out at 10 nM.

For `C[C@H](NC1=NS(=O)(=O)C(c2ccc(-c3cccc(C(N)=O)c3)nc2)C(C)(C)O1)c1ccccc1F` (stereo partly drawn) [Example 181, 3-(5-{2-[(S)-1-(2-fluorophenyl)-ethylamino]-6,6-dimethyl-4,4-dioxo-5,6-dihydro-4H-4lambda6-[1,4,3]oxathiazin-5-yl}-pyridin-2-yl)-benzamide], the IC50 turned out to be 7 nM. The IC50 values of the last two molecules are within 1.5-fold of each other.

Turning to `CC1(C)OC(N[C@@H](CCO)c2ccccc2F)=NS(=O)(=O)[C@H]1c1ccc(-c2ccnc(C#N)c2)cc1` [Example 184, 4-(4-{(S)-2-[(S)-1-(2-fluorophenyl)-3-hydroxy-propylamino]-6,6-dimethyl-4,4-dioxo-5,6-dihydro-4H-4lambda6-[1,4,3]oxathiazin-5-yl}-phenyl)-pyridine-2-carbonitrile], the concentration for half-maximal inhibition (IC50) was 3 nM.
